# Reference: patent publication US6353017B1, “Dipeptide nitriles” (Novartis AG, priority 1997, dated 2002)
smiles,measurement,value
"COC(=O)c1cccc(OCCC(C#N)NC(=O)[C@H](Cc2cccc(C)c2)NC(=O)C(c2ccccc2)c2ccccc2)c1 (stereo partly drawn) [Example 305, N-[3-(3-(methoxycarbonyl)-phenoxy)-1-cyanopropyl]-3-methyl-Nα-(2,2-diphenylacetyl)-L-phenylalaninamide]",melting point,152 to 153 °C
